Data reported in patent publication US20260337125A1, “RADIOLABELED TYROSINE DERIVATIVE AND APPLICATION THEREOF” (Osaka University, priority 2022, published 2026).

Legend:
[1] = system: A549; assay: Therapeutic test on mice subcutaneously transplanted with A549; assay type: in vivo, human (A549) in Balb/c-nu/nu mice; conditions: A549 tumor weight 30 days after administration, 0.5 MBq/0.2 mL per mouse, tail vein
Protocol: Immunodeficient mice (Balb/c-nu/nu, 5-week-old, male) were habituated for 1 week and then subcutaneously transplanted with A549 or CDDP-resistant A549 (A549 CDDP-r) (1×10^7 cells/mouse). The mice were observed over time until engraftment of tumors was confirmed (50 to 100 mm^3), and when the tumors reached a predetermined size, ^211At-AAMT-OMe or ^211At-AAMT diluted with water for injection to 0.5 MBq/0.2 mL per mouse was administered via tail vein. Thirty days after administration, the mice were euthanized and tumor masses were isolated. After fat tissue and the like were trimmed off, the wet weights of the isolated tumor masses were measured to make a histogram.

[2] = TLC analysis of stability after purification; assay type: physicochemical; conditions: 24 hours after purification, in sodium ascorbate aqueous solution (final concentration 1%)
Protocol: The crude product solution (1 μL) was analyzed by thin-layer chromatography (TLC). The sample was spotted on a thin-layer plate (silica gel 60F254), and a mixed solvent of acetonitrile/water (2/1) was used as a developing solvent. The thin-layer plate was exposed to an imaging plate (BAS IP MS 2025E, GE Healthcare) for about 15 min, and then analyzed by a bioimage analyzer (Tyhoon™ FLA-7000, Cytiva). The results are shown in FIG. 2. ^211At-AAMT-OMe in the crude product solution was detected at Rf 0.80, and the radiochemical yield (RCY) was 81.3%.
(§1) The crude product solution was injected into an HLB column (Oasis, WAT-186005125) equilibrated with sterile distilled water (1 mL) to capture the target product in the cartridge, and sterile distilled water was passed through the cartridge to elute impurities. Next, 30% ethanol solution (500 μL) was passed through the cartridge to elute the target product into sodium ascorbate aqueous solution (500 μL, final concentration 1%), thus obtaining the purified product. The radiochemical yield and radiochemical purity of the purified product were 81% and 98%, respectively.
Before purification, immediately after production, 3 hours after production, and 24 hours after production, ^211At-AAMT-OMe was analyzed by thin-layer chromatography (TLC) in the same manner as described above.
as §1, with “product. This purified product was analyzed by thin-layer chromatography (TLC) in the same manner as described above.” for “product.”, “79.6%” for “81%”, “99.9%,” for “98%,”
24 hours after production, (R)-^211At-AAMT-OMe was analyzed by thin-layer chromatography (TLC) in the same manner as described above.
as §1, with “product. This purified product was analyzed by thin-layer chromatography (TLC) in the same manner as described above.” for “product.”, “75.9%” for “81%”, “99.27%,” for “98%,”
24 hours after production, ^211At-AAMT-OEt was analyzed by thin-layer chromatography (TLC) in the same manner as described above.
The crude product solution was injected into an HLB column (Oasis, WAT-186005125) equilibrated with sterile distilled water (1 mL) to capture the target product in the cartridge, and sterile distilled water was passed through the cartridge to elute impurities. […] This purified product was analyzed by thin-layer chromatography (TLC) in the same manner as described above. […]
24 hours after production, ^211At-AAMT-OPr was analyzed by thin-layer chromatography (TLC) in the same manner as described above. […]

[3] = system: CDDP-resistant A549 (A549 CDDP-r); conditions: 48 hours, 37 °C, Cell counting kit-8
Protocol: Two days before experiment, A549 and CDDP-resistant A549 (A549 CDDP-r) were each seeded in a 96-well plate at a concentration of 1×10^5 cells/mL. ^211At-AAMT-OMe or ^211At-AAMT adjusted to a predetermined concentration was added to A549 cells and CDDP-resistant A549 cells, respectively, and the cells were cultured (CO2 5%, 37 °C). After the cultivation for 48 hours, Cell counting kit-8 (DOJINDO LABORATORIES) was added. After the addition, the cells were cultured at 37 °C for 1 hour, and cell viability was measured using absorbance at 450 nm as an indicator.

[4] = system: human pancreatic cancer cell line (PANC1); assay: Therapeutic test on PANC1 subcutaneously transplanted mice (28 days); assay type: in vivo, human (PANC1) in Balb/c-nu/nu mice; conditions: 1 MBq/0.2 mL per mouse, tail vein
Source text: Twenty-eight days after administration, the mice were euthanized and subjected to autopsy, and tumor masses were isolated after organs were examined for abnormalities.

## COc1ccc(C[C@](C)(N)C(=O)O)cc1[At] [^211At-AAMT-OMe, (S)-3-astato(^211At)-O-methyl-α-methyltyrosine]
[1]
  anti-tumor effect: comparable to that of ^211At-AAMT on A549
[2]
  decomposition by TLC: no decomposition
[3]
  cytotoxicity: more remarkable cytotoxicity against A549 CDDP-r
[4]; 28 days after administration
  anti-tumor effect: slightly higher than that of ^211At-AAMT
  tumor size: slightly smaller than that of the ^211At-AAMT administration group
[4]; up to 28 days after administration
  mouse body weight: tends to slightly reduce, but the body weight reduction is significantly smaller than that of the control group, and is therefore not at a level regarded as a side effect
